In US9994862B2, “Rice resistant to HPPD and ACCase inhibiting herbicides” (priority 2011, dated 2018):
“Also recorded” adds a separate entry of the source.

Legend:
[1] = system: line PL1214418M2-80048; assay: Herbicide tolerance of the combined HPPD and ACCase line; parameters: species or system rice; settings: in vivo
Source text: An early maturing group of plants was harvested as early as possible and the seeds planted in the greenhouse to help quickly advance to the F4 generation. Selections on the F3 plants were made by molecular markers flanking the HPPD tolerance mutation and native tolerance the ACCase functional mutation. Homozygous plants for all the selected genomic regions were advanced to the F5 generation. The F5 seed was confirmed to carry tolerance to ACCase herbicides and the HPPD herbicide mesotrione. Among the F5 lines PL1214418M2-80048 was selected due to a high seed yield and being homozygous for the ACCase tolerance mutation at position G2096S, the HPPD tolerance mutation, and the HPPD tolerance native gene. Seed from the line PL1214418M2-80048 was deposited at the ATCC and given a deposit number PTA-121362 (see Table 8).
Individuals with tolerance to both mesotrione and ACCase herbicides were selfed to produce F3 families and further selected for other important agronomic characters. The F3 lines were selfed and purified to derive a new line or variety with dual resistance to mesotrione and ACCase herbicides. Such lines are highly valuable as the use of both herbicides provides more complete and broad-spectrum weed control. […]

[2] = system: common rice weeds; assay: Weed control by mesotrione in rice plots; type: in vivo; settings: mesotrione alone; especially pre-plant or 2x the labeled rate of 210 gmai/ha
Method: FIG. 6A-6B is a photograph of results of trait tolerance trials; weed control by mesotrione herbicide applied pre-planting was evaluated; the plots were planted with a hybrid of the HPPD tolerant line ML0831266-03093; just before planting, the plot on the right FIG. 6B received an application of mesotrione at 210 gmai/ha; the plot on the left FIG. 6A had no herbicide applied either pre-plant or post-emergence; pictures were taken four weeks after planting showing differences in weed appearance.
Rice is tolerant to certain ACCase inhibitor herbicides, for example cyhalofop is registered for use in rice. However other ACCase herbicides kill or severely injure rice to varying degrees. […] The applied rates of both types of herbicides giving the weed control are well within the tolerance level of the respective ACCase and HPPD tolerant lines including the combined lines carrying tolerance to both HPPD and ACCase herbicides.
Further validation of the trait involved testing the mutant line ML0831266-03093 in the presence of common rice weeds. […] This level of grass weed control was completely unexpected as mesotrione is labeled for controlling broadleaf weeds in monocot crops.

[3] = system: line ML0831265-01493; assay: Mesotrione tolerance trials / herbicide bioassay; type: in vivo, rice
Source text: The mutant line is planted in rows or alternatively whole plots are planted and rows of the unmutated line (P1003) and other types of rice or whole plots are planted. Mesotrione is applied pre-emergence or alternatively it is applied post-emergence at the three to four leaf stage of the rice plants. Various rates of mesotrione are applied pre-emergence, pre-emergence followed by post-emergent, or post-emergent with a single or sequential application. Post-emergent applications are applied at the 3-4 leaf stage of the rice.
With low rates (105 gm ai/ha) of mesotrione applied both the mutant line as well as the original unmutated line survive. However, other types of rice, such as the mutant line with ACCase tolerance ML0831265-01493 and the associated unmutated line R0146 are killed at these rates of mesotrione. […] The higher tolerance to mesotrione makes the line ML0831266-03093 of commercial value as both the tolerance can be controlled or bred into new varieties and it is of a high enough level to allow commercial weed control in rice with the application of mesotrione herbicide and possibly other HPPD inhibiting herbicides (FIG. 19A initial results, FIG. 19B new results after 1 year, and FIG. 22—trial results on various rice lines).

[4] = system: permanent mutant population (lines derived from P1003, R0146, P1062); assay: Mesotrione screening of the permanent mutant population; type: in vivo, rice; settings: 255.1 gm ai per acre, within twelve hours after planting
Source text: A mutation breeding program was initiated to develop proprietary herbicide resistant/tolerant lines. A permanent mutant population was created by exposing approximately 10,000 seeds (estimated by the average weight of a kernel) of three rice lines including P1003, R0146, and P1062 to both mutagens sodium azide (AZ) and methyl-nitrosourea (MNU). The treated seeds were planted. Individual plants were harvested creating 8,281 potentially […] lines. The lines have been maintained as a permanent mutant population for trait screening.
Resistance to mesotrione herbicide was found by screening the permanent mutant population. All lines in the permanent mutant population were planted into a dry seed bed. Within twelve hours after planting mesotrione (Callisto®) was applied at a rate of 255.1 gm ai per acre. The field was immediately flushed with water and kept moist through periodic flushing. The seedlings grew, many were bleached white and all lines derived from R0146 died whereas plants lived from 21 lines derived from the P1003 and 2 derived from P1062 mutation populations. The HPPD gene was sequenced, and no genetic mutation was identified causing any amino acid substitutions (SEQ ID NOs: 1, 2, 3).

Q: What does the source list for `CS(=O)(=O)c1ccc(C(=O)C2C(=O)CCCC2=O)c([N+](=O)[O-])c1` [mesotrione]?
A: tolerance to the herbicide [1]: tolerance; weed control by mesotrione [2]: well controlled; also recorded: prevalent control; also recorded: Control of common weeds in rice was also achieved; sensitivity to mesotrione ([3]; in vivo): highly susceptible; also recorded: highly sensitive; survival after mesotrione ([3]; low rate 105 gm ai/ha): killed; number of lines derived from P1003 with plants that lived [4]: 21 lines; number of lines derived from P1062 with plants that lived [4]: 2 lines; response of lines derived from R0146 [4]: died
